Patent US7781580B2, “Stilbene derivatives as new cancer therapeutic agents” (Virginia Commonwealth University, priority 2007, dated 2010)
Like-named read-outs stand apart in the source and are kept apart here.

Legend:
[1] = test system: UCI101 ovarian cancer cells; assay: Western blot of signal transduction events, UCI101; type: cell-based
How it was run: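 UCI101 cells exposed to 0.1 μM compound for 0, 4, 8, 16 and 36 h, then harvested and analysed by Western blot. Probes covered G2-M regulators Cdc2, Cdc25c and BubR1, plus Akt phosphorylation.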

[2] = test system: human umbilical vein endothelial cells (HUVECs); assay: HUVEC flow cytometry and tubulin staining; type: cell-based; conditions: 30 nM, 16 hours
Experimental: (a) Flow cytometry analysis. HUVECs were treated with 30 nM of stilbene 4a for 16 hours followed by staining with PI and subjected to flow cytometry analysis. A large subG0/1 population, representing apoptotic cells, appeared along with reverse of the G1/G2 ratio. (b) Immunofluorescent staining of the HUVECs with antibody against tubulin. Nuclei were counter-stained with DAPI. Stilbene 4a disrupted microtubules at a concentration of 30 nM or higher. Stilbene 4c disrupted microtubules at 100 nM.
In order to establish that stilbenes suppress tumor perfusion by damaging tumor endothelial cells, we first incubated human vascular endothelial cells (HUVECs) with various concentrations of stilbenes in vitro. After 24 hours of incubation, cells were processed for flow cytometry analysis with propidium iodide staining. Cells were also fixed with 2% paraformaldehyde and stained with anti-tubulin antibody to examine tubulin disruption and with DAPI to analyze nuclear fragmentation.

Tubulin (>99% pure) = assay: tubulin polymerization assay (OD 340 nm); type: biochemical; conditions: OD340 nm; nocodazole and paclitaxel 10 μM
UCI101 cells = assay: immunofluorescent staining of tubulin, UCI101; type: cell-based; conditions: CA4 10 nM, stilbene 4a 100 nM, 5b 3 μM; 16 hours
Source text: Nuclei were stained with DAPI.

[3] = test system: MDA-MB231 breast cancer cells; assay: cell cycle analysis, MDA-MB231; type: cell-based; conditions: 16 hours
Experimental: Cells were treated with various concentrations of stilbene 4a or CA4 for 16 hours followed by PI staining and FACscan analysis. […] A unique feature of stilbene 4a was noted when cells were treated with 30 nM.
Due to the structural similarity between stilbene 4a and CA4, we investigated the difference in the biological activity of these two compounds in MDA-MB231 breast cancer cells and their Chk2−/− derivatives. […] MDA-MB231 cells were treated with 10 nM stilbene 4a or 1 nM CA4. […] However, a difference in cell cycle change was observed following treatment with 30 nM of stilbene 4a versus 3 nM of CA4. […] This was also the case for cells treated with 100 nM stilbene 4a. A significant subG1/0 population was also noted. […] One possible effect could be a DNA damage response, which is a common mechanism of multiple chemotherapeutic agents but not one of pure microtubule-interfering agents such a paclitaxel or vincristine. […] We then obtained conditional Chk1−/− and Chk2−/− cells, which were derived from the same MDA-MB231 cells for the same flow cytometry analysis. […] In contrast, Chk2−/− cells were more sensitive to stilbene 4a. […] This mechanism is not obvious in higher drug concentrations at which the G2 arrest from microtubule interference is dominant. Therefore, in addition to their microtubule interfering effect, stilbenes have another mechanism to induce cell death. Thus, the use of a Chk2 inhibitor in combination with stilbenes may be a viable approach to enhancing the beneficial therapeutic effects of stilbenes.

[4] = water solubility of stilbene and carbamate prodrug (salts and free base); type: physicochemical; conditions: for solubility: water, 20 °C, 20° C.
Experimental: Stilbene prodrugs may be made by attaching to a stilbene derivative of interest (e.g. a stilbene derivative with anti-tumor activity), chemical groups (or moieties) that render the stilbene derivative more water soluble than before such a modification is carried out. By “water soluble” we mean that more than 20 mg compound can be fully dissolved in 1 mL of water. Further, the chemical groups that are attached to the stilbene derivative to make the derivative water soluble are labile (i.e. removable) in that, upon exposure to in vitro or in vivo hydrolyzing conditions, the chemical groups are removed or dissociated from the stilbene derivative by hydrolysis, releasing the active, anti-tumor form of the stilbene derivative. The chemical groups which are attached may themselves be biologically active, and are, at least, not biologically injurious to cells or mammals. […] As illustrated, morfolinoethyl-urea, morfolinoethyl-carbamate and triethylene glycol (TEG) groups (5a, 5b, 5c, respectively) may be used for this purpose.

SMILES: COc1cc(/C=C\c2ccc(OC)c(N)c2)cc(OC)c1 [4a, (Z)-5-[2-(3,5-Dimethoxy-phenyl)-vinyl]-2-methoxy-phenylamine]
- phosphorylation of Stat3 ([1]; 0.1 μM): transient increase in phosphorylation at 4 and 8 hours
- phosphorylation of Cdc2 at Tyr15 ([1]; 0.1 μM, 16 hours): decreased dramatically
- phosphorylation of Chk1 ([1]; 36 hours): increased uniquely at 36 hours
- apoptosis of HUVECs (flow cytometry) [2]: induced a significant apoptotic population of subG0/1 cells
- effect on tubulin polymerization (Tubulin (>99% pure)): suppressed polymerization in a dose-dependent manner
- microtubule pattern (UCI101 cells): partial disruption of microtubules
- cell cycle change at 30 nM ([3]; 30 nM): induced some degree of G2 arrest, but the ratio of G1/G2 did not reverse
- cell cycle change at 10 nM stilbene 4a or 1 nM CA4 [3]: No change was observed
- water solubility (in words) [4]: limited solubility
- solubility ([4]; HCl salt, read-out: water solubility, x HCl): 6000 µg/mL
- solubility ([4]; free base, read-out: water solubility, Free base): < 1000 µg/mL
- solubility ([4]; oxalate salt, read-out: water solubility, x (COOH)2): < 1000 µg/mL
